Results taken from patent US20200341000A1, “METHOD OF SCREENING COMPOUNDS FOR TREATING CNS DISORDERS” (SAGE THERAPEUTICS, INC., priority 2017, published 2020).
Where two headings read alike, the source gives them in different places. Marks after values point to notes of the source that are not given here.

Key:
α4β3δ GABAA receptors = molecular target: T1, α4β3δ GABAA receptors (Homo sapiens, UniProt O14764+P28472+P48169); test: Whole-cell patch clamp, potentiation of GABA EC20 currents at recombinant extrasynaptic-type receptors (CHO cells); format: cell-based
T1 construct: expressed in transfected cells; host or cells: CHO cells (transient transfection, Lipofectamine)
T1 sequence (P48169 36-554): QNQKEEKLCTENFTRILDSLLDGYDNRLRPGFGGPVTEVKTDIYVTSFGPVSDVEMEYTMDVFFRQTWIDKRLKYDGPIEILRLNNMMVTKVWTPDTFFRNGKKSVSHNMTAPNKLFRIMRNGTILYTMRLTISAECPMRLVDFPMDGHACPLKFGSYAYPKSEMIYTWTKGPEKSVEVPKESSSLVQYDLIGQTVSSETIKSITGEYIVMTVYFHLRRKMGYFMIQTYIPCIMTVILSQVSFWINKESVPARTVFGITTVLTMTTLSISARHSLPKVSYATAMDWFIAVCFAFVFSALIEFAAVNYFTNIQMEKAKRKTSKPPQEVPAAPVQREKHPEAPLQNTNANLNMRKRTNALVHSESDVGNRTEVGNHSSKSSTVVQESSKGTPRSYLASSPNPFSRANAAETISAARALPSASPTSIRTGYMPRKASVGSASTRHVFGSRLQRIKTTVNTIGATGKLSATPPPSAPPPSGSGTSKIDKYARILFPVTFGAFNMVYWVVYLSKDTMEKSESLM
T1 sequence (P28472 26-473): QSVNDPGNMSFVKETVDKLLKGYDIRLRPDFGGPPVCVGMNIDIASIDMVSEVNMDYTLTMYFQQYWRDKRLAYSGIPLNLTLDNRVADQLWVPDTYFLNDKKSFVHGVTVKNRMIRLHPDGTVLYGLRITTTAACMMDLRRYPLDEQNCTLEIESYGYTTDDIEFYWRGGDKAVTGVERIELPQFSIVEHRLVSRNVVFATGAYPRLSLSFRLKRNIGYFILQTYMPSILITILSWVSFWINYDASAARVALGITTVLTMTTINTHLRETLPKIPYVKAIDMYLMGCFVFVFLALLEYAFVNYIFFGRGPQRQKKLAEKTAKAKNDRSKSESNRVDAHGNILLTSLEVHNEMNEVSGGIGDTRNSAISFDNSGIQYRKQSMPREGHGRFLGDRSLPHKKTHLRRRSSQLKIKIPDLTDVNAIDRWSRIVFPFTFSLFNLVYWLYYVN
T1 sequence (O14764 25-452): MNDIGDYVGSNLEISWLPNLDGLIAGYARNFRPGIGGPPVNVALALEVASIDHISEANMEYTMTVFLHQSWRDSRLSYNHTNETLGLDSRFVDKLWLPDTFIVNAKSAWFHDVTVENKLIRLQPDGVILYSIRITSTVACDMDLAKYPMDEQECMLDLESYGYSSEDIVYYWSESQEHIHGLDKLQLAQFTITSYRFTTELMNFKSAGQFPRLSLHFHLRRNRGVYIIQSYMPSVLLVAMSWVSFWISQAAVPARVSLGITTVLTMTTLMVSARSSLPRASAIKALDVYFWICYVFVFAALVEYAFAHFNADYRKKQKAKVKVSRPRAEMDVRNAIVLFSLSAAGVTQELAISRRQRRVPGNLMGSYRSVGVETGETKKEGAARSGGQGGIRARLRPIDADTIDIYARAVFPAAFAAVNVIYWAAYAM
Procedure: Cellular electrophysiology was used to measure the pharmacological properties of ALLO, ganaxolone and SGE-516 in heterologous cell systems. Compounds were tested for their ability to affect GABA mediated currents at a submaximal agonist dose (GABA EC20=2 μM).
LTK cells were stably transfected with the α1β2γ2 subunits of the GABA receptor and CHO cells are transiently transfected with the α4β3γ subunits via the Lipofecatamine method. Cells were passaged at a confluence of about 50-80% and then seeded onto 35 mm sterile culture dishes containing 2 ml culture complete medium without antibiotics or antimycotics. Cells were cultivated at a density that enabled the recording of single cells without visible connections to other cells.
Whole-cell currents were measured with HEKA EPC-10 amplifiers using PatchMaster software. Bath solution for all experiments contained (in mM): NaCl 137, KCl 4, CaCl2 1.8, MgCl2 1, HEPES 10, D-Glucose 10, pH 7.4 with NaOH. Intracellular (pipette) solution contained (in mM): KCl 130, MgCl2 1, Mg-ATP 5, HEPES 10, EGTA 5, pH 7.2 with KOH. During experiments, cells and solutions were maintained at room temperature (19° C.-30° C.). For manual patchclamp recordings, cell culture dishes were placed on the dish holder of the microscope and continuously perfused (1 ml/min) with bath solution. After formation of a Gigaohm seal between the patch electrode and the cell (pipette resistance range: 2.5 MΩ-6.0MΩ; seal resistance range: >1 GΩ) the cell membrane across the pipette tip was ruptured to assure electrical access to the cell interior (whole-cell patch configuration).
Cells were voltage-clamped at a holding potential of −80 mV. GABAA receptors were activated by 2 μM GABA and compounds were sequentially applied at increasing concentrations for 30 s prior to a 2 s application of GABA. GABA and compounds were applied to cells via the Dynaflow perfusion system (Cellectricon, Sweden). Test compounds were dissolved in DMSO to form 10 mM stock solution and serially diluted to 0.01, 0.1, 1, and 10 μM in bath solution. […] All concentrations of test compound were tested on each cell. The relative percentage potentiation was defined as the peak amplitude in response to GABA EC20 in the presence of test compound divided by the peak amplitude in response to GABA EC20 alone, multiplied by 100.
ALLO and ganaxolone are known PAMs of both synaptic and extrasynaptic GABAAR-mediated currents. […] The α1β2γ2 or α4β3δ subunit combinations were chosen as representatives of typical synaptic and extrasynaptic GABAA receptors respectively.

[1] = system: tonic current in dentate gyms granule cells (DGGCs); test: Acute (allosteric) modulation of tonic current in DGGCs of hippocampal slices; format: cell-based, mice; conditions: 100 nM, 10 min acute exposure, then 100 μM picrotoxin; mean±SEM
Procedure: Brain slices were prepared from 3- to 5-week-old male C57 mice. Mice were anesthetized with isoflurane, decapitated, and brains were rapidly removed and submerged in ice-cold cutting solution containing (mM): 126 NaCl, 2.5 KCl, 0.5 CaCl2, 2 MgCl2, 26 NaHCO3, 1.25 NaH2PO4, 10 glucose, 1.5 sodium pyruvate, and 3 kynurenic acid. Coronal 310 μm thick slices were cut with the vibratome VT1000S (Leica Microsystems, St Louis, Mo., USA). The slices were then transferred into incubation chamber filled with prewarmed (31-32° C.) oxygenated artificial cerebro-spinal fluid (ACSF) of the following composition (in mM): 126 NaCl, 2.5 KCl, 2 CaCl2, 2 MgCl2, 26 NaHCO3, 1.25 NaH2PO4, 10 glucose, 1.5 sodium pyruvate, 1 glutamine, 3 kynurenic acid and 0.005 GABA bubbled with 95% O2-5% CO2. Slices were allowed to recover at 32° C. for at least 1 hr before recording. Exogenous GABA was added in an attempt to standardize ambient GABA in the slice and provide an agonist source for newly inserted extrasynaptic GABAARs. […]
Whole-cell currents were recorded from the dentate gyms granule cells (DGGCs) in 310-μm-thick coronal hippocampal slices. […] A 5 min period for stabilization after obtaining the whole-cell recording conformation (holding potential of −60 mV) was allowed before currents were recorded using an Axopatch 200B amplifier (Molecular Devices), low-pass filtered at 2 kHz, digitized at 20 kHz (Digidata 1440A; Molecular Devices), and stored for offline analysis.
For tonic current measurements, an all-points histogram was plotted for a 10 s period before and during 100 μM picrotoxin application, once the response reached a plateau level. […] Series resistance and whole-cell capacitance were continually monitored and compensated throughout the course of the experiment. […] Spontaneous inhibitory post-synaptic currents (sIPSCs) were analyzed using the mini-analysis software (version 5.6.4; Synaptosoft, Decatur, Ga.). […] Only recordings with a minimum of 200 events fitting these criteria were analyzed. sIPSCs amplitude, and frequency from each experimental condition was pooled and expressed as mean±SEM. […]

[2] = system: sIPSCs in dentate gyms granule cells (DGGCs); test: Acute (allosteric) modulation of sIPSCs in DGGCs of hippocampal slices; format: cell-based, mice; conditions: for mean sIPSC amplitude before versus during exposure / mean sIPSC decay time in the presence of compound: 100 nM; for sIPSC Amplitude / sIPSC Decay / sIPSC Frequency: 100 nM acute exposure, n = 5 to 7 neurons
Procedure: Brain slices were prepared from 3- to 5-week-old male C57 mice. Mice were anesthetized with isoflurane, decapitated, and brains were rapidly removed and submerged in ice-cold cutting solution containing (mM): 126 NaCl, 2.5 KCl, 0.5 CaCl2, 2 MgCl2, 26 NaHCO3, 1.25 NaH2PO4, 10 glucose, 1.5 sodium pyruvate, and 3 kynurenic acid. Coronal 310 μm thick slices were cut with the vibratome VT1000S (Leica Microsystems, St Louis, Mo., USA). The slices were then transferred into incubation chamber filled with prewarmed (31-32° C.) oxygenated artificial cerebro-spinal fluid (ACSF) of the following composition (in mM): 126 NaCl, 2.5 KCl, 2 CaCl2, 2 MgCl2, 26 NaHCO3, 1.25 NaH2PO4, 10 glucose, 1.5 sodium pyruvate, 1 glutamine, 3 kynurenic acid and 0.005 GABA bubbled with 95% O2-5% CO2. Slices were allowed to recover at 32° C. for at least 1 hr before recording. Exogenous GABA was added in an attempt to standardize ambient GABA in the slice and provide an agonist source for newly inserted extrasynaptic GABAARs.
After recovery, a single slice was transferred to a submerged, dual perfusion recording chamber (Warner Instruments, Hamden, Conn., USA) on the stage of an upright microscope (Nikon FN-1) with a 40× water immersion objective equipped with DIC/IR optics. Slices were maintained at 32° C. and gravity-superfused with ACSF solution throughout experimentation and perfused at rate of 2 ml/min with oxygenated (O2/CO2 95/5%) ACSF.
Whole-cell currents were recorded from the dentate gyms granule cells (DGGCs) in 310-μm-thick coronal hippocampal slices. Patch pipettes (5-7MΩ) were pulled from borosilicate glass (World Precision Instruments) and filled with intracellular solution of the composition (in mM) as follows: 140 CsCl, 1 MgCl2, 0.1 EGTA, 10 HEPES, 2 Mg-ATP, 4 NaCl and 0.3 Na-GTP (pH=7.2 with CsOH). A 5 min period for stabilization after obtaining the whole-cell recording conformation (holding potential of −60 mV) was allowed before currents were recorded using an Axopatch 200B amplifier (Molecular Devices), low-pass filtered at 2 kHz, digitized at 20 kHz (Digidata 1440A; Molecular Devices), and stored for offline analysis.
For tonic current measurements, an all-points histogram was plotted for a 10 s period before and during 100 μM picrotoxin application, once the response reached a plateau level. Recordings with unstable baselines were discarded. Fitting the histogram with a Gaussian distribution gave the mean baseline current amplitude and the difference between the amplitudes before and during picrotoxin was considered to be the tonic current. The negative section of the all-points histogram which corresponds to the inward IPSCs was not fitted with a Gaussian distribution (Kretschmannova et al., 2013; Nusser and Mody, 2002). Series resistance and whole-cell capacitance were continually monitored and compensated throughout the course of the experiment. Recordings were eliminated from data analysis if series resistance increased by >20%. Spontaneous inhibitory post-synaptic currents (sIPSCs) were analyzed using the mini-analysis software (version 5.6.4; Synaptosoft, Decatur, Ga.). Minimum threshold detection was set to 3 times the value of baseline noise signal. To assess sIPSC kinetics, the recording trace was visually inspected and only events with a stable baseline, sharp rising phase, and single peak were used to negate artifacts due to event summation. Only recordings with a minimum of 200 events fitting these criteria were analyzed. sIPSCs amplitude, and frequency from each experimental condition was pooled and expressed as mean±SEM. To measure sIPSC decay, 100 consecutive events were averaged and the decay was fitted to a double exponential and the weighted decay constant (tw) was determined. Statistical analysis was performed by using Student t-test (paired and unpaired where appropriate), where p<0.05 is considered significant.

[3] = system: GABA receptor trafficking; test: GABA receptor trafficking measured by GABAergic current density (FIG. 14); format: cell-based; conditions: measured by the GABAergic current density
Description: As shown in above examples, not all neurosteroids can modulate GABA receptor trafficking.

[4] = relative percentage potentiation of GABA EC20 peak current, n = 3

SMILES	EC50 (α4β3δ GABAA receptors)	Emax (α4β3δ GABAA receptors; CHO, relative percentage potentiation of GABA EC20 peak current, n = 3, read-out: Emax ± S.E.M., α4β3δ)	Emax ± S.E.M., α4β3δ (α4β3δ GABAA receptors; [4])	tonic current during acute exposure [1]	mean sIPSC amplitude before versus during exposure [2]	mean sIPSC decay time in the presence of compound [2]	sIPSC Amplitude [2]	sIPSC Decay [2]	sIPSC Frequency [2]	modulation of GABA receptor trafficking [3]	pEC50 ± S.E.M., α4β3δ (α4β3δ GABAA receptors; GABA EC20 (2 μM), n = 3)	EC50 (α4β3δ GABAA receptors; GABA EC20 (2 μM), n = 3, read-out: EC50, potentiation of GABA current, α4β3δ)
CC(=O)[C@H]1CC[C@H]2[C@@H]3CC[C@H]4C[C@H](O)CC[C@]4(C)[C@H]3CC[C@]12C [ALLO, Allopregnanolone]	57 nM	426%	426 ± 42%	58.3±13.0 pA	no significant difference	significantly increased	59.1 ± 0.6 pA	19.2 ± 1.3^a ms	3.4 ± 1.0 Hz	modulated GABA receptor trafficking	–	–
C[C@@]1(O)CC[C@H]2[C@H](CC[C@@H]3[C@@H]2CC[C@]2(C)[C@@H](C(=O)Cn4nccn4)CC[C@@H]32)C1 [SGE-516]	–	–	505 ± 19%	49.2±8.9 pA	no significant difference	significantly increased	52.9 ± 0.7 pA	15.1 ± 0.8^b ms	4.6 ± 0.6 Hz	modulated GABA receptor trafficking	6.7 ± 0.1	193 nM
